For assay [1], the target named is T1, ABHD6 (Mus musculus (Mouse), UniProt Q8R2Y0). As to the kind of experiment: In vitro competitive activity-based protein profiling (mouse brain membrane fraction or cell lysates), ABHD6 band. Type of assay: biochemical. As to conditions: mouse proteome; for inhibition at 1 µM: read-out: ABHD6 % Inh 1 μM (mouse); for IC50: competitive ABPP. The procedure, abridged:
(§1)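 Residual hydrolase activity was measured as gel band fluorescence after FP-Rh labelling (30 min, 37° C) of proteomes pretreated 30 min at 37° C with inhibitor.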

In assay [2] the target is T1, ABHD6. As to the kind of experiment: Mouse brain proteomes from inhibitor treated mice (oral gavage, sacrificed 4 h after administration, ABPP analysis), ABHD6. Type of assay: in vivo, mouse (C57Bl/6J). As to conditions: 5 mg/kg oral gavage. The procedure, abridged: (§2)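 Read-out is % inhibition at 5 mg/kg in brain proteomes profiled by activity-based protein profiling. Inhibitors were dosed orally to wild-type C57Bl/6J mice, with sacrifice at 4 h.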

In assay [3] the target is T2, MAGL (Mus musculus (Mouse), UniProt O35678). The assay is described as follows: Mouse brain proteomes from inhibitor treated mice (oral gavage, sacrificed 4 h after administration, ABPP analysis). Conditions: 5 mg/kg oral gavage. Type of assay: in vivo, mouse (C57Bl/6J). In a few lines: as §2
T2 sequence (O35678 whole entry): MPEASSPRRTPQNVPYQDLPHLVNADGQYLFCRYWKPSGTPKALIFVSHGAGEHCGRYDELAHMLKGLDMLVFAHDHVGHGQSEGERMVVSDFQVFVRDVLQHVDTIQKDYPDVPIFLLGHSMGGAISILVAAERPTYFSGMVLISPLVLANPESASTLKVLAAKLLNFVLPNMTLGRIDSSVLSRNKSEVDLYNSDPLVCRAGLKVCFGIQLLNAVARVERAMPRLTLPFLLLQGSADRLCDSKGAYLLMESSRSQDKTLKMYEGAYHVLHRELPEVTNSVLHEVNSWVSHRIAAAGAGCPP
Assay [4] concerns the target T2, MAGL. As to the kind of experiment: In vitro competitive activity-based protein profiling (mouse brain membrane fraction or cell lysates), MAGL band. It is filed as biochemical. Conditions: mouse proteome; for inhibition at 1 µM: read-out: MAGL % Inh 1 μM (mouse); for IC50: competitive ABPP. As to the method: In Vitro Competitive Activity-Based Protein Profiling.
Proteomes (mouse brain membrane fraction or cell lysates) (50 μL, 1.0 mg/mL total protein concentration) were preincubated with varying concentrations of inhibitors at 37° C. After 30 min, FP—Rh (1.0 μL, 50 μM in DMSO) was added and the mixture was incubated for another 30 min at 37° C. Reactions were quenched with SDS loading buffer (50 μL-4×) and run on SDS-PAGE.

The target in assay [5] is T3, FAAH (Mus musculus (Mouse), UniProt O08914). The assay is described as follows: In vitro competitive activity-based protein profiling (mouse brain membrane fraction or cell lysates), FAAH band. As to conditions: mouse proteome; for inhibition at 1 µM: read-out: FAAH % Inh 1 μM (mouse); for IC50: competitive ABPP. It is filed as biochemical. In a few lines: as §1
T3 sequence (O08914 whole entry): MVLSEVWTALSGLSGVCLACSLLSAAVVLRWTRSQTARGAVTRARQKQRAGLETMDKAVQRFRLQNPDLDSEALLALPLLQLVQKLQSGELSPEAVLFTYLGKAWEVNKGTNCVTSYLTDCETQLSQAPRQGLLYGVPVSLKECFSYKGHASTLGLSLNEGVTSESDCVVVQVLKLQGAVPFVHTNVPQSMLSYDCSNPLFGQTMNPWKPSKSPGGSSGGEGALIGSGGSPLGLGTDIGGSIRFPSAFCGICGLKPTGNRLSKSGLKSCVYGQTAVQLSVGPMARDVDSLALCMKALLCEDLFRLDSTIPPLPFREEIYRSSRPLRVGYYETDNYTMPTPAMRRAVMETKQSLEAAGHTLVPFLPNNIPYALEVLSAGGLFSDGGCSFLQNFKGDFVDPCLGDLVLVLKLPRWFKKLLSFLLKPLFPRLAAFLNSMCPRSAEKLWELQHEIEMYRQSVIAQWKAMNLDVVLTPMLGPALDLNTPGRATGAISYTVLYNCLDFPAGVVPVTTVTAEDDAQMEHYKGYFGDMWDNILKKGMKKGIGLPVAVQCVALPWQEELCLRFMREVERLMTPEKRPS
Assay [6] deals with T3, FAAH. The assay is described as follows: Mouse brain proteomes from inhibitor treated mice (oral gavage, sacrificed 4 h after administration, ABPP analysis), FAAH. As to conditions: 5 mg/kg oral gavage. It is filed as in vivo, mouse (C57Bl/6J). In a few lines:
as §2

A value given as a limit tells only on which side of the number the result lay.

T1 sequence (Q8R2Y0 whole entry): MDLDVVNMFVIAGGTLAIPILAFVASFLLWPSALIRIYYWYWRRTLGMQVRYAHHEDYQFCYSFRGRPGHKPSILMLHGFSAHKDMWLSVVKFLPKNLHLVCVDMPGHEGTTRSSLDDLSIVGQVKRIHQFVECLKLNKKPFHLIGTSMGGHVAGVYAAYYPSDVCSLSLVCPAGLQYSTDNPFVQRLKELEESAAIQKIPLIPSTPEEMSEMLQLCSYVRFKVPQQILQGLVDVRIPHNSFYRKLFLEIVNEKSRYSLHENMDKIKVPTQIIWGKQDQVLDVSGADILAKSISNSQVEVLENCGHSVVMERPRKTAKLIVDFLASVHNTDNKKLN

For the compound `O=C(OC(C(F)(F)F)C(F)(F)F)N1CCC2(CCCN2Cc2ccc(C(F)(F)F)cc2Oc2cccnc2)CC1` [Example 173, 1,1,1,3,3,3-Hexafluoropropan-2-yl 1-(2-(pyridin-3-yloxy)-4-(trifluoromethyl)benzyl)-1,8-diazaspiro[4.5]decane-8-carboxylate], the inhibition at 1 µM on ABHD6 [1] was 25 to 75%; on MAGL [4] it was over 75%; on FAAH [5] it was under 25%. Moreover, the IC50 – broadly, the point on the concentration scale where inhibition reaches its midpoint – was over 1 µM at ABHD6 [1], under 0.1 µM on MAGL [4] and over 1 µM on FAAH [5]. For the same compound, at ABHD6 [2], the “ABHD6 % Inh 5 mg/kg (mouse)” value was “# (# is <25%)”. On MAGL [3], the “MAGL % Inh 5 mg/kg (mouse)” value was “## (## is equal to or greater than 25% but less than 75%)”. Besides, on FAAH [6], the “FAAH % Inh 5 mg/kg (mouse)” value is “# (# is <25%)”.

As for `O=C(OC(C(F)(F)F)C(F)(F)F)N1CCC2(CCCN2Cc2cc(Oc3cccnc3)cc(C(F)(F)F)c2)CC1` [Example 174, 1,1,1,3,3,3-Hexafluoropropan-2-yl 1-(3-(pyridin-3-yloxy)-5-(trifluoromethyl)benzyl)-1,8-diazaspiro[4.5]decane-8-carboxylate], the inhibition at 1 µM is 25 to 75% on ABHD6 [1], over 75% at MAGL [4] and under 25% at FAAH [5]. The IC50 on ABHD6 [1] was over 1 µM; on MAGL [4], under 0.1 µM; on FAAH [5], over 1 µM. At ABHD6 [2], the “ABHD6 % Inh 5 mg/kg (mouse)” value is recorded as “# (# is <25%)”. Also, the “MAGL % Inh 5 mg/kg (mouse)” value on MAGL [3] is recorded as “## (## is equal to or greater than 25% but less than 75%)”. Also, on FAAH [6], the “FAAH % Inh 5 mg/kg (mouse)” value is “# (# is <25%)”.

Regarding `O=C(OC(C(F)(F)F)C(F)(F)F)N1CCC2(CCCN2Cc2cc(OC3CCS(=O)(=O)CC3)cc(C(F)(F)F)c2)CC1` [Example 176, 1,1,1,3,3,3-Hexafluoropropan-2-yl 1-(3-((1,1-dioxidotetrahydro-2H-thiopyran-4-yl)oxy)-5-(trifluoromethyl)benzyl)-1,8-diazaspiro[4.5]decane-8-carboxylate], the figures for the inhibition at 1 µM on ABHD6 [1], on MAGL [4] and at FAAH [5] were under 25%, over 75% and under 25%, respectively. In addition, the figures for the IC50 on ABHD6 [1], at MAGL [4] and on FAAH [5] were over 1 µM, under 0.1 µM and over 1 µM, respectively. Moreover, the “ABHD6 % Inh 5 mg/kg (mouse)” value at ABHD6 [2] is “# (# is <25%)”. Further, the “MAGL % Inh 5 mg/kg (mouse)” value on MAGL [3] is listed as “## (## is equal to or greater than 25% but less than 75%)”. The “FAAH % Inh 5 mg/kg (mouse)” value at FAAH [6] is “# (# is <25%)”.

Take `Cc1cc(CN2CCCC23CCN(C(=O)OC(C(F)(F)F)C(F)(F)F)CC3)ccc1C(F)(F)F` [Example 177, 1,1,1,3,3,3-Hexafluoropropan-2-yl 1-(3-methyl-4-(trifluoromethyl)benzyl)-1,8-diazaspiro[4.5]decane-8-carboxylate]: the inhibition at 1 µM is 25 to 75% at ABHD6 [1], over 75% at MAGL [4] and under 25% at FAAH [5]. The 50% inhibitory concentration (IC50) at ABHD6 [1] was over 1 µM; at MAGL [4] it was 0.1 to 1 µM; on FAAH [5] it was over 1 µM. Also, the “ABHD6 % Inh 5 mg/kg (mouse)” value at ABHD6 [2] is recorded as “# (# is <25%)”. For the same compound, the “MAGL % Inh 5 mg/kg (mouse)” value at MAGL [3] is recorded as “### (### is ≥75%)”. Besides, the “FAAH % Inh 5 mg/kg (mouse)” value on FAAH [6] is given as “# (# is <25%)”.

In the case of `Cc1ccc(CN2CCCC23CCN(C(=O)OC(C(F)(F)F)C(F)(F)F)CC3)cc1C(F)(F)F` [Example 180, 1,1,1,3,3,3-Hexafluoropropan-2-yl 1-(4-methyl-3-(trifluoromethyl)benzyl)-1,8-diazaspiro[4.5]decane-8-carboxylate], the inhibition at 1 µM on ABHD6 [1] is under 25%; at MAGL [4], over 75%; at FAAH [5] it was under 25%. The figures for the IC50 at ABHD6 [1], on MAGL [4] and at FAAH [5] were over 1 µM, under 0.1 µM and over 1 µM, respectively. The “ABHD6 % Inh 5 mg/kg (mouse)” value at ABHD6 [2] was “## (## is equal to or greater than 25% but less than 75%)”. For the same compound, the “MAGL % Inh 5 mg/kg (mouse)” value on MAGL [3] was “### (### is ≥75%)”. Also, the “FAAH % Inh 5 mg/kg (mouse)” value at FAAH [6] is on record as “## (## is equal to or greater than 25% but less than 75%)”.
